The EC50 is the concentration giving half of the maximal effect.

The results in this text go back to US10087178B2, “Substituted spiropyrido[1,2-a]pyrazine derivative and medicinal use thereof as HIV integrase inhibitor” (priority 2012, dated 2018).

Counter-ions that a name gives are not always drawn.

One assay concerns HIV-1 NL4-3 strain. Nature of the assay: Evaluation of antiviral activity: acute infection system of MT-4 cell with HIV-1 NL4-3 strain. Particulars: Human immunodeficiency virus 1, NL43, MT4, 120 h, MT-4 cells infected with HIV-1 NL4-3 strain (MOI 0.05), cultured 5 days, Cell Titer-Glo; read-out: antiviral activity (EC50). It is filed as cell-based. For orientation: In ATP-based viability assays light output follows the ATP content of the culture.
For the compound `CCO[C@H]1C[C@]2(CN(C)C(=O)c3c(O)c(=O)c(C(=O)NCc4ccc(F)cc4F)cn32)C1` [Example S51, N-(2,4-difluorobenzyl)-cis-3-ethoxy-9′-hydroxy-2′-methyl-1′,8′-dioxo-1′,2′,3′,8′-tetrahydrospiro[cyclobutane-1,4′-pyrido[1,2-a]pyrazine]-7′-carboxamide hydrochloride], the EC50 amounted to 2.4 nM.
For `CCOC[C@H]1C[C@@]12CN(C)C(=O)c1c(O)c(=O)c(C(=O)NCc3ccc(OC)c(Cl)c3F)cn12` [Example T31, (1S,2S)-N-(3-chloro-2-fluoro-4-methoxybenzyl)-2-(ethoxymethyl)-9′-hydroxy-2′-methyl-1′,8′-dioxo-1′,2′,3′,8′-tetrahydrospiro[cyclopropane-1,4′-pyrido[1,2-a]pyrazine]-7′-carboxamide], the EC50 was 12 nM.
The same measure, in the same setting: the same measure for `CC(C)N1C(=O)c2c(O)c(=O)c(C(=O)NCc3cccc(Cl)c3F)cn2C[C@@]12C[C@@H]2CO` [Example T47, (1S,2S)-N-(3-chloro-2-fluorobenzyl)-9′-hydroxy-2-(hydroxymethyl)-2′-isopropyl-1′,8′-dioxo-1′,2′,4′,8′-tetrahydrospiro[cyclopropane-1,3′-pyrido[1,2-a]pyrazine]-7′-carboxamide]: 4 nM; for `CCO[C@H]1C[C@]2(CN(C)C(=O)c3c(O)c(=O)c(C(=O)NCc4cccc(Cl)c4F)cn32)C1` [Example S29, N-(3-chloro-2-fluorobenzyl)- cis-3-ethoxy-9′-hydroxy-2′-methyl-1′,8′-dioxo-1′,2′,3′,8′-tetrahydrospiro[cyclobutane-1,4′-pyrido[1,2-a]pyrazine]-7′-carboxamide hydrochloride]: 4.3 nM; for `COC[C@H]1C[C@@]2(CN(C(C)C)C(=O)c3c(O)c(=O)c(C(=O)NCc4ccc(F)cc4F)cn32)C1` [Example S25, N-(2,4-difluorobenzyl)-9′-hydroxy-2′-isopropyl-trans-3-(methoxymethyl)-1′,8′-dioxo-1′,2′,3′,8′-tetrahydrospiro[cyclobutane-1,4′-pyrido[1,2-a]pyrazine]-7′-carboxamide hydrochloride]: 7 nM.
The same measure, in the same setting: next, `COC[C@H]1C[C@@]12CN(C(C)C)C(=O)c1c(O)c(=O)c(C(=O)NCc3cccc(Cl)c3F)cn12` [Example T12, (1S,2S)-N-(3-chloro-2-fluorobenzyl)-9′-hydroxy-2′-isopropyl-2-(methoxymethyl)-1′,8′-dioxo-1′,2′,3′,8′-tetrahydrospiro[cylcopropane-1,4′-pyrido[1,2-a]pyrazine]-7′-carboxamide hydrochloride]: 5.7 nM.
Same read-out and setting: next, `CNC(=O)[C@H]1C[C@]2(CN(C(C)C)C(=O)c3c(O)c(=O)c(C(=O)NCc4ccc(F)cc4F)cn32)C1` [Example S30, N^7′-(2,4-difluorobenzyl)-9′-hydroxy-2′-isopropyl-N^3-methyl-1′,8′-dioxo-1′,2′,3′,8′-tetrahydrospiro[cyclobutane-1,4′-pyrido[1,2-a]pyrazine]- cis-3,7′-dicarboxamide hydrochloride]: 170 nM; `CCO[C@H]1C[C@]2(Cn3cc(C(=O)NCc4cccc(Cl)c4F)c(=O)c(O)c3C(=O)N2CC)C1` [Example S57, N-(3-chloro-2-fluorobenzyl)- cis-3-ethoxy-2′-ethyl-9′-hydroxy-1′,8′-dioxo-1′,2′,4′,8′-tetrahydrospiro[cyclobutane-1,3′-pyrido[1,2-a]pyrazine]-7′-carboxamide hydrochloride]: 4.7 nM; `COC[C@H]1C[C@]2(CN(C)C(=O)c3c(OC(=O)C(C)C)c(=O)c(C(=O)NCc4cccc(Cl)c4F)cn32)C1` [Example S68, 7′-(3-chloro-2-fluorobenzylcarbamoyl)-cis-3-(methoxymethyl)-2′-methyl-1′,8′-dioxo-1′,2′,3′,8′-tetrahydrospiro[cyclobutane-1,4′-pyrido[1,2-a]pyrazin]-9′-yl isobutyrate]: 0.7 nM.
For `CCOC[C@H]1C[C@]2(CN(C)C(=O)c3c(O)c(=O)c(C(=O)NCc4cccc(Cl)c4F)cn32)C1` [Example S39, N-(3-chloro-2-fluorobenzyl)- cis-3-(ethoxymethyl)-9′-hydroxy-2′-methyl-1′,8′-dioxo-1′,2′,3′,8′-tetrahydrospiro[cyclobutane-1,4′-pyrido[1,2-a]pyrazine]-7′-carboxamide hydrochloride], the EC50 stood at 3.5 nM.
For `CCO[C@H]1C[C@@]2(Cn3cc(C(=O)NCc4cccc(Cl)c4F)c(=O)c(O)c3C(=O)N2CC)C1` [Example S56, N-(3-chloro-2-fluorobenzyl)- trans-3-ethoxy-2′-ethyl-9′-hydroxy-1′,8′-dioxo-1′,2′,4′,8′-tetrahydrospiro[cyclobutane-1,3′-pyrido[1,2-a]pyrazine]-7′-carboxamide hydrochloride], the EC50 amounted to 5.1 nM.

Still in this assay, the particulars now being: Human immunodeficiency virus 1, NL43, MT4, 120 h, antiviral activity; MT-4 cells infected with HIV-1 NL4-3 (MOI 0.05), 5 days culture, Cell Titer-Glo luminescence.
The compound `CC(C)N1C[C@@]2(C[C@@H]2CO)n2cc(C(=O)NCc3ccc(F)cc3F)c(=O)c(O)c2C1=O` [Example 9, (1S,2S)—N-(2,4-difluorobenzyl)-9′-hydroxy-2-(hydroxymethyl)-2′-isopropyl-1′,8′-dioxo-1′,2′,3′,8′-tetrahydrospiro[cyclopropane-1,4′-pyrido[1,2-a]pyrazine]-7′-carboxamide hydrochloride] displayed an EC50 of 5.6 nM.
Take `CO[C@H]1C[C@@]2(CN(C)C(=O)c3c(O)c(=O)c(C(=O)NCc4cccc(Cl)c4F)cn32)C1` [Example 2, N-(3-chloro-2-fluorobenzyl)-9′-hydroxy-trans-3-methoxy-2′-methyl-1′,8′-dioxo-1′,2′,3′,8′-tetrahydrospiro[cyclobutane-1,4′-pyrido[1,2-a]pyrazine]-7′-carboxamide hydrochloride]: the response was half-maximal at 4.2 nM (EC50).
The compound `CC(=O)N(C)C1CC2(C1)CN(C(C)C)C(=O)c1c(O)c(=O)c(C(=O)NCc3ccc(F)cc3F)cn12` (stereo not shown) [Example 20, N-(2,4-difluorobenzyl)-9′-hydroxy-2′-isopropyl-3-(N-methylacetamido)-1′,8′-dioxo-1′,2′,3′,8′-tetrahydrospiro[cyclobutane-1,4′-pyrido[1,2-a]pyrazine]-7′-carboxamide hydrochloride] yielded an EC50 of 20 nM.

The same assay, now with this note: Human immunodeficiency virus 1, NL43, MT4, 120 h, antiviral activity; MT-4 cells infected with HIV-1 NL4-3 (MOI 0.05), 5 days culture, Cell Titer-Glo luminescence; read-out: EC50.
Regarding `CCO[C@H]1C[C@]2(CN(CC)C(=O)c3c(O)c(=O)c(C(=O)NCc4ccc(F)cc4F)cn32)C1` [Example S21, N-(2,4-difluorobenzyl)-cis-3-ethoxy-2′-ethyl-9′-hydroxy-1′,8′-dioxo-1′,2′,3′,8′-tetrahydrospiro[cyclobutane-1,4′-pyrido[1,2-a]pyrazine]-7′-carboxamide hydrochloride], the EC50 was determined as 3.8 nM.
Turning to `CCN1C[C@]2(C[C@H](OC)C2)n2cc(C(=O)NCc3ccc(F)cc3F)c(=O)c(O)c2C1=O` [Example S20, N-(2,4-difluorobenzyl)-2′-ethyl-9′-hydroxy-cis-3-methoxy-1′,8′-dioxo-1′,2′,3′,8′-tetrahydrospiro[cyclobutane-1,4′-pyrido[1,2-a]pyrazine]-7′-carboxamide hydrochloride], the EC50 was 3.5 nM.
As to `CCN1C(=O)c2c(O)c(=O)c(C(=O)NCc3cccc(Cl)c3F)cn2C[C@]12C[C@H]2COC` [Example 18, (1R,2R)—N-(3-chloro-2-fluorobenzyl)-2′-ethyl-9′-hydroxy-2-(methoxymethyl)-1′,8′-dioxo-1′,2′,4′,8′-tetrahydrospiro[cyclopropane-1,3′-pyrido[1,2-a]pyrazine]-7′-carboxamide], the EC50 was 2.6 nM.

The assay is the same for the next values; noted with them: Human immunodeficiency virus 1, NL43, MT4, 120 h, read-out: antiviral activity (EC50), MT-4 cells infected with HIV-1 NL4-3 strain (MOI 0.05), cultured 5 days, Cell Titer-Glo.
In the case of `CCN1C[C@]2(C[C@H]2COC)n2cc(C(=O)NCc3ccc(F)cc3F)c(=O)c(O)c2C1=O` [Example T9, (1R,2R)-N-(2,4-difluorobenzyl)-2′-ethyl-9′-hydroxy-2-(methoxymethyl)-1′,8′-dioxo-1′,2′,3′,8′-tetrahydrospiro[cyclopropane-1,4′-pyrido[1,2-a]pyrazine]-7′-carboxamide hydrochloride], the EC50 was found to be 5.8 nM.
On the same count and under the same terms, next, `CCN1C(=O)c2c(O)c(=O)c(C(=O)NCc3ccc(OC)c(Cl)c3F)cn2C[C@@]12C[C@@H]2CO` [Example T48, (1S,2S)-N-(3-chloro-2-fluoro-4-methoxybenzyl)-2′-ethyl-9′-hydroxy-2-(hydroxymethyl)-1′,8′-dioxo-1′,2′,4′,8′-tetrahydrospiro[cyclopropane-1,3′-pyrido[1,2-a]pyrazine]-7′-carboxamide hydrochloride]: 18 nM; `CCN1C[C@@]2(C[C@@H]2CO)n2cc(C(=O)NCc3cccc(Cl)c3F)c(=O)c(O)c2C1=O` [Example T18, (1S,2S)-N-(3-chloro-2-fluorobenzyl)-2′-ethyl-9′-hydroxy-2-(hydroxymethyl)-1′,8′-dioxo-1′,2′,3′,8′-tetrahydrospiro[cyclopropane-1,4′-pyrido[1,2-a]pyrazine]-7′-carboxamide hydrochloride]: 10 nM.

Staying with this assay, now noted: MT-4 cells infected with HIV-1 NL4-3 strain (MOI 0.05), cultured 5 days, Cell Titer-Glo; hydrobromide; read-out: antiviral activity (EC50).
For `COC[C@H]1C[C@]2(CN(C)C(=O)c3c(O)c(=O)c(C(=O)NCc4cccc(Cl)c4F)cn32)C1` [Example 31, N-(3-chloro-2-fluorobenzyl)-9′-hydroxy-cis-3-(methoxymethyl)-2′-methyl-1′,8′-dioxo-1′,2′,3′,8′-tetrahydrospiro[cyclobutane-1,4′-pyrido[1,2-a]pyrazine]-7′-carboxamide hydrobromide], the EC50 is 1.9 nM.

The same assay, now with this note: MT-4 cells infected with HIV-1 NL4-3 strain (MOI 0.05), cultured 5 days, Cell Titer-Glo; read-out: antiviral activity (EC50).
For `COC[C@H]1C[C@]2(CN(C)C(=O)c3c(O)c(=O)c(C(=O)NCc4cccc(Cl)c4F)cn32)C1` [Example 26, N-(3-chloro-2-fluorobenzyl)-9′-hydroxy-cis-3-(methoxymethyl)-2′-methyl-1′,8′-dioxo-1′,2′,3′,8′-tetrahydrospiro[cyclobutane-1,4′-pyrido[1,2-a]pyrazine]-7′-carboxamide], the EC50 was 1.9 nM.
